BindingDB's records for doi:10.1021/jm061299k (Bayer Healthcare Pharmaceuticals, 2007)

These molecules were tested against Peroxisome proliferator-activated receptor gamma (Mus musculus) (UniProt P37238) (assay: PPARgamma activity was assessed by the cell-based insulin receptor binding assay (IRBA) in mouse 3T3-L1 cells, measuring the increase in the number of insulin receptors). Conditions: not given.

Structure (SMILES)	EC50
O=C(O)C[C@@H]1CCc2cc(OCCCOc3ccccc3)ccc21 [2-[(1S)-5-(3-phenoxypropoxy)-2,3-dihydro-1H-inden-1-yl]acetic acid]	> 10000 nM
COc1cc(-c2nc(C)c(C(=O)N(C)C)s2)ccc1OCCCOc1ccc2c(c1)CC[C@H]2CC(=O)O [2-[(1S)-5-(3-{4-[5-(dimethylcarbamoyl)-4-methyl-1,3-thiazol-2-yl]-2-methoxyphenoxy}propoxy)-2,3-dihydro-1H-inden-1-yl]acetic acid]	312 nM
CCCc1cc(-c2nc(C)c(C(=O)N(C)C)s2)ccc1OCCCOc1ccc2c(c1)CC[C@H]2CC(=O)O [2-[(1S)-5-(3-{4-[5-(dimethylcarbamoyl)-4-methyl-1,3-thiazol-2-yl]-2-propylphenoxy}propoxy)-2,3-dihydro-1H-inden-1-yl]acetic acid]	20 nM
O=C(O)C[C@@H]1CCc2cc(OCCCOc3ccc4cnoc4c3)ccc21 [2-[(1S)-5-[3-(1,2-benzoxazol-6-yloxy)propoxy]-2,3-dihydro-1H-inden-1-yl]acetic acid]	> 10000 nM
O=C(O)C[C@@H]1CCc2cc(OCCCOc3ccc4ncoc4c3)ccc21 [2-[(1S)-5-[3-(1,3-benzoxazol-6-yloxy)propoxy]-2,3-dihydro-1H-inden-1-yl]acetic acid]	> 10000 nM
O=C(O)C[C@@H]1CCc2cc(OCCCOc3ccc4cc[nH]c4c3)ccc21 [2-[(1S)-5-[3-(1H-indol-6-yloxy)propoxy]-2,3-dihydro-1H-inden-1-yl]acetic acid]	> 10000 nM
Cc1ccc(OCCCOc2ccc3c(c2)CC[C@H]3CC(=O)O)cc1C [2-[(1S)-5-[3-(3,4-dimethylphenoxy)propoxy]-2,3-dihydro-1H-inden-1-yl]acetic acid]	> 10000 nM
CCCc1c(OCCCOc2ccc3c(c2)CC[C@H]3CC(=O)O)ccc2c1ccn2C [2-[(1S)-5-{3-[(1-methyl-4-propyl-1H-indol-5-yl)oxy]propoxy}-2,3-dihydro-1H-inden-1-yl]acetic acid]	> 10000 nM

The molecules below were run against T1, Peroxisome proliferator-activated receptor alpha (Homo sapiens, UniProt Q07869) (assay: PPAR FRET Assay). Conditions: 25 °C.
T1 sequence (Q07869 whole entry): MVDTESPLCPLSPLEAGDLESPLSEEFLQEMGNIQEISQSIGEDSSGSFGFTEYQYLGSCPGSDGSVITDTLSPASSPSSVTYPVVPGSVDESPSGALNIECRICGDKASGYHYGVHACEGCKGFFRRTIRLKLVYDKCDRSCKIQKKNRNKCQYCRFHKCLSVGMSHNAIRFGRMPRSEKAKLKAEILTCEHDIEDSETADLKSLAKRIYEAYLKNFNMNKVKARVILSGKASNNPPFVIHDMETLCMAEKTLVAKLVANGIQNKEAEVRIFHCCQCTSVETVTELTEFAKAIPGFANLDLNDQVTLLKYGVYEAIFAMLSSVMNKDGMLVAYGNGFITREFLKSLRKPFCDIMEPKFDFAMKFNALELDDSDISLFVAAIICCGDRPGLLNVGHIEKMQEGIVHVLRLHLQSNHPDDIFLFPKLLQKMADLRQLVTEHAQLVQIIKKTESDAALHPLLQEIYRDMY
Description: (§1) Activity was assessed by measuring the human PPAR ligand binding domain with the co-activator protein. Europium labeled anti-GST antibody, streptavidin-labeled APC, biotin-labeled co-activator protein, and PPAR-GST were incubated at room temperature in buffer in the presence or absence of test compound.

Structure (SMILES)	EC50
CCCc1cc(-c2nc3c(s2)CCCO3)ccc1OCCCOc1ccc2c(c1)CC[C@H]2CC(=O)O [2-[(1S)-5-[3-(2-propyl-4-{5H,6H,7H-pyrano[2,3-d][1,3]thiazol-2-yl}phenoxy)propoxy]-2,3-dihydro-1H-inden-1-yl]acetic acid]	101 nM

The molecules below were run against T2, Peroxisome proliferator-activated receptor delta (Homo sapiens, UniProt Q03181) (assay: PPAR FRET Assay). Conditions: 25 °C.
T2 sequence (Q03181 whole entry): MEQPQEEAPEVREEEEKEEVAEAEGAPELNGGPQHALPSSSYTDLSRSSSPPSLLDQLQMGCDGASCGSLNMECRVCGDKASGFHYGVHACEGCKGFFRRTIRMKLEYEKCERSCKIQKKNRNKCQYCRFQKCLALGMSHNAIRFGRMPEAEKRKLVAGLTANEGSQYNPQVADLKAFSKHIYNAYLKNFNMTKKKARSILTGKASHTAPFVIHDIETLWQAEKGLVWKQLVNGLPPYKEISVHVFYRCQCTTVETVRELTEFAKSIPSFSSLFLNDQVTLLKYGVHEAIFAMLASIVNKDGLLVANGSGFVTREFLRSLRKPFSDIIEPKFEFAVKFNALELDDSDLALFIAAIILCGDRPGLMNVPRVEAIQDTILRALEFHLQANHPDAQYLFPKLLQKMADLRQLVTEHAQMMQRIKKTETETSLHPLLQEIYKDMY
Description: as §1

Structure (SMILES)	EC50
CCCc1cc(-c2nc3c(s2)CCCO3)ccc1OCCCOc1ccc2c(c1)CC[C@H]2CC(=O)O [2-[(1S)-5-[3-(2-propyl-4-{5H,6H,7H-pyrano[2,3-d][1,3]thiazol-2-yl}phenoxy)propoxy]-2,3-dihydro-1H-inden-1-yl]acetic acid]	4 nM
